Read-outs that look alike come from different tables or passages of the source.
Assay: Estimation of solubility in various solvents by step-wise solvent addition
Format: physicochemical
Procedure: Samples of 1-2 mg of Compound I phosphate (lot 35282-CS-51) were transferred to 10 mL glass vials (tared) and were weighed (accurate to 0.1 mg). Solvents were added to the vials (one solvent to each vial) in a step-wise fashion, with 0.5 mL of solvent added at each step. Solvents used were buffer (pH=2), buffer (pH=5), water, methanol, tetrahydrofuran (THF), acetonitrile, and acetone. After each addition, the vial was capped and shaken. The dissolution of solid was visually observed. If no obvious dissolution was observed, more solvent was added immediately. If dissolution was apparent, the vial was left on the bench for at least 30 minutes before the next addition of solvent. This step was repeated until no crystals were visible against a black and a white background. The solubility was then bracketed by dividing the weight of the compound by the final volume and the volume before the last addition. If a solid remained after the addition of 10 mL of solvent, the solubility was expressed as less than the weight divided by the final volume. If the solid was completely dissolved after the first addition of solvent, the solubility was expressed as greater than the weight divided by the solvent volume. All experiments were conducted at room temperature.

Estimated solubility (Acetone, 23° C.): <<<0.2 mg/mL | Estimated solubility (Acetonitrile, 23° C.): <<<0.13 mg/mL | Estimated solubility (THF, 23° C.): <<<0.19 mg/mL | solubility (buffer (pH 2), pH 2, at pH 2 or lower, read-out: solubility): > 3000 µg/mL | solubility (buffer (pH 2, HCl and KCl), 23 °C, pH 2, aqueous buffer, thermodynamic from solid, buffer (pH = 2, HCl and KCl), 23° C., read-out: Estimated solubility): 5900 to 7400 µg/mL | Estimated solubility (methanol, 23° C.): ~0.14 mg/mL | solubility (water, 23 °C, pH 4.91, water, thermodynamic from solid, water, 23° C., final solution pH 4.91, read-out: Estimated solubility): ~290 µg/mL
SMILES: Cc1[nH]c(/C=C2\C(=O)Nc3ccc(F)cc32)c(C)c1C(=O)NCCN1CCCC1 [Compound I phosphate]
